Measured values as given in the NIST ThermoML archive (doi:10.1016/j.jct.2016.07.008).

Assay: xn = mol fraction of the nth substance listed
Conditions: Liquid, Vibrating wire viscometry

CCCCO [butan-1-ol] + Cc1ccc(C)c(C)c1
viscosity [mPa·s], x1 = 1
Conditions | 293.15 K | 298.15 K | 313.15 K | 323.15 K | 333.15 K | 348.15 K | 353.15 K
100 kPa | 2.969 | 2.601 | 1.797 | 1.429 | 1.156 | 0.8579 | 0.7903
1000 kPa | 3.001 | 2.622 | 1.813 | 1.44 | 1.172 | 0.8647 | 0.7943
5000 kPa | 3.108 | 2.715 | 1.89 | 1.491 | 1.227 | 0.8956 | 0.8284
10000 kPa | 3.244 | 2.834 | 1.967 | 1.556 | 1.29 | 0.9349 | 0.8637
20000 kPa | 3.479 | 3.079 | 2.14 | 1.69 | 1.389 | 1.016 | 0.9473
30000 kPa | 3.788 | 3.333 | 2.319 | 1.829 | 1.504 | 1.101 | 1.04
40000 kPa | 4.078 | 3.599 | 2.48 | 1.975 | 1.624 | 1.189 | 1.102
50000 kPa | 4.401 | 3.874 | 2.629 | 2.125 | 1.741 | 1.28 | 1.21
60000 kPa | 4.74 | 4.16 | 2.852 | 2.281 | 1.867 | 1.375 | 1.295
70000 kPa | 5.076 | 4.455 | 3.089 | 2.443 | 2.014 | 1.473 | 1.384
80000 kPa | 5.438 | 4.761 | 3.247 | 2.61 | 2.137 | 1.575 | 1.473
100000 kPa | 6.164 | 5.404 | 3.686 | 2.962 | 2.384 | 1.788 | 1.676
120000 kPa | 6.979 | 6.087 | 4.192 | 3.335 | 2.633 | 2.015 | 1.857
140000 kPa | 7.843 | 6.811 | 4.638 | 3.682 | 2.883 | 2.255 | 2.037

Cc1ccc(C)c(C)c1 [1,2,4-trimethylbenzene] + CCCCO
viscosity [mPa·s]
Conditions | 293.15 K | 313.15 K | 333.15 K | 353.15 K
100 kPa, x2 = 0.2999 | 1.004 | 0.7478 | 0.5848 | 0.4547
100 kPa, x2 = 0.5289 | 1.227 | 0.8685 | 0.6443 | 0.495
100 kPa, x2 = 0.7991 | 1.959 | 1.254 | 0.8537 | 0.6105
1000 kPa, x2 = 0.2999 | 1.019 | 0.7546 | 0.5927 | 0.4576
1000 kPa, x2 = 0.5289 | 1.228 | 0.8775 | 0.6496 | 0.4993
1000 kPa, x2 = 0.7991 | 1.977 | 1.271 | 0.8605 | 0.618
5000 kPa, x2 = 0.2999 | 1.066 | 0.7792 | 0.6096 | 0.4793
5000 kPa, x2 = 0.5289 | 1.29 | 0.9012 | 0.6816 | 0.5174
5000 kPa, x2 = 0.7991 | 2.057 | 1.332 | 0.8976 | 0.6396
10000 kPa, x2 = 0.2999 | 1.104 | 0.8286 | 0.6356 | 0.4978
10000 kPa, x2 = 0.5289 | 1.348 | 0.9526 | 0.7029 | 0.5381
10000 kPa, x2 = 0.7991 | 2.177 | 1.385 | 0.94 | 0.667
20000 kPa, x2 = 0.2999 | 1.197 | 0.8853 | 0.6805 | 0.5414
20000 kPa, x2 = 0.5289 | 1.462 | 1.029 | 0.753 | 0.5739
20000 kPa, x2 = 0.7991 | 2.381 | 1.506 | 1.026 | 0.7229
30000 kPa, x2 = 0.2999 | 1.292 | 0.9596 | 0.7326 | 0.577
30000 kPa, x2 = 0.5289 | 1.588 | 1.116 | 0.8089 | 0.6155
30000 kPa, x2 = 0.7991 | 2.563 | 1.645 | 1.107 | 0.7805
40000 kPa, x2 = 0.2999 | 1.391 | 1.025 | 0.7951 | 0.6166
40000 kPa, x2 = 0.5289 | 1.73 | 1.201 | 0.8688 | 0.6521
40000 kPa, x2 = 0.7991 | 2.757 | 1.759 | 1.197 | 0.8397
50000 kPa, x2 = 0.2999 | 1.516 | 1.105 | 0.8476 | 0.659
50000 kPa, x2 = 0.5289 | 1.87 | 1.293 | 0.9271 | 0.6945
50000 kPa, x2 = 0.7991 | 2.995 | 1.921 | 1.282 | 0.9004
60000 kPa, x2 = 0.2999 | 1.65 | 1.181 | 0.906 | 0.7031
60000 kPa, x2 = 0.5289 | 2.031 | 1.402 | 0.9904 | 0.7392
60000 kPa, x2 = 0.7991 | 3.241 | 2.046 | 1.379 | 0.9627
70000 kPa, x2 = 0.2999 | 1.804 | 1.271 | 0.9707 | 0.7463
70000 kPa, x2 = 0.5289 | 2.196 | 1.492 | 1.059 | 0.7855
70000 kPa, x2 = 0.7991 | 3.481 | 2.187 | 1.466 | 1.026
80000 kPa, x2 = 0.2999 | 1.938 | 1.357 | 1.03 | 0.7895
80000 kPa, x2 = 0.5289 | 2.401 | 1.612 | 1.131 | 0.8338
80000 kPa, x2 = 0.7991 | 3.754 | 2.342 | 1.577 | 1.092
100000 kPa, x2 = 0.2999 | 2.236 | 1.531 | 1.177 | 0.8968
100000 kPa, x2 = 0.5289 | 2.773 | 1.821 | 1.295 | 0.9482
100000 kPa, x2 = 0.7991 | 4.289 | 2.65 | 1.771 | 1.226
120000 kPa, x2 = 0.2999 | 2.578 | 1.753 | 1.308 | 0.997
120000 kPa, x2 = 0.5289 | 3.261 | 2.065 | 1.453 | 1.062
120000 kPa, x2 = 0.7991 | 4.849 | 2.995 | 1.945 | 1.367
140000 kPa, x2 = 0.2999 | 2.956 | 1.969 | 1.447 | 1.117
140000 kPa, x2 = 0.5289 | 3.719 | 2.367 | 1.615 | 1.194
140000 kPa, x2 = 0.7991 | 5.47 | 3.336 | 2.135 | 1.512

CCCCO [butan-1-ol] + CC(C)CC(C)(C)C
viscosity [mPa·s], x1 = 1
Conditions | 293.15 K | 298.15 K | 313.15 K | 323.15 K | 333.15 K | 348.15 K | 353.15 K
100 kPa | 2.969 | 2.601 | 1.797 | 1.429 | 1.156 | 0.8579 | 0.7903
1000 kPa | 3.001 | 2.622 | 1.813 | 1.44 | 1.172 | 0.8647 | 0.7943
5000 kPa | 3.108 | 2.715 | 1.89 | 1.491 | 1.227 | 0.8956 | 0.8284
10000 kPa | 3.244 | 2.834 | 1.967 | 1.556 | 1.29 | 0.9349 | 0.8637
20000 kPa | 3.479 | 3.079 | 2.14 | 1.69 | 1.389 | 1.016 | 0.9473
30000 kPa | 3.788 | 3.333 | 2.319 | 1.829 | 1.504 | 1.101 | 1.04
40000 kPa | 4.078 | 3.599 | 2.48 | 1.975 | 1.624 | 1.189 | 1.102
50000 kPa | 4.401 | 3.874 | 2.629 | 2.125 | 1.741 | 1.28 | 1.21
60000 kPa | 4.74 | 4.16 | 2.852 | 2.281 | 1.867 | 1.375 | 1.295
70000 kPa | 5.076 | 4.455 | 3.089 | 2.443 | 2.014 | 1.473 | 1.384
80000 kPa | 5.438 | 4.761 | 3.247 | 2.61 | 2.137 | 1.575 | 1.473
100000 kPa | 6.164 | 5.404 | 3.686 | 2.962 | 2.384 | 1.788 | 1.676
120000 kPa | 6.979 | 6.087 | 4.192 | 3.335 | 2.633 | 2.015 | 1.857
140000 kPa | 7.843 | 6.811 | 4.638 | 3.682 | 2.883 | 2.255 | 2.037
